Source: patent US20060235076A1, “Medicinal composition for treating infection with drug-resistant staphylococcus aureus” (priority 2003, published 2006)
Values after ≈ are worked out from the molar mass of the structure shown. Read-outs that look alike come from different tables or passages of the source.

Columns and labels:
[1] = test system: MRSA COL and MRSA Strain No. 5; assay: Potentiating effect of various gallates for antibacterial activity of oxacillin (MIC by broth microdilution method and FIC); format: cell-based, Staphylococcus aureus; settings: for FIC value: combination with oxacillin
Summary of the method: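 Broth microdilution MIC per Japan Society of Chemotherapy method in cation-adjusted Mueller-Hinton broth (50 mg/l Ca, 25 mg/l Mg, 2% NaCl); inoculum 5×10^5 CFU/well from overnight 37° C culture. Gallate–oxacillin combinations evaluated by FIC.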

MRSA and MSSA = assay: Antibacterial activity of gallic acid, various gallates and multivalent phenol derivatives alone (agar plate dilution method, MIC); format: cell-based, Staphylococcus aureus; settings: Staphylococcus aureus
Summary of the method: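 Agar plate dilution MIC per Japan Society of Chemotherapy, on Mueller-Hinton II agar supplemented with 50 mg/l Ca-ion, 25 mg/l Mg-ion and 2% NaCl. Inoculum grown overnight at 37 °C and diluted in saline to 10^6 CFU/ml. Compounds tested alone.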

CCCCCCCCOC(=O)c1cc(O)c(O)c(O)c1 [Octyl gallate, n-octyl gallate]
antibacterial activity when used alone ([1]; COL Strain and Strain No. 5): most potent | FIC value ([1]; MRSA COL): 0.252 | FIC value ([1]; MRSA Strain No. 5): 0.75 | MIC50 (MRSA and MSSA): 31.3 µg/mL (≈ 111 µM) | MIC (MRSA and MSSA; ATCC 6538 / MRSA / MSSA, read-out: MIC alone): 31.3 µg/mL (≈ 111 µM) | MIC (MRSA and MSSA; COL, read-out: MIC alone): 31.3 µg/mL (≈ 111 µM) | MIC (MRSA and MSSA; MRSA #1, read-out: MIC alone): 31.3 µg/mL (≈ 111 µM) | MIC (MRSA and MSSA; MRSA #2, read-out: MIC alone): 31.3 µg/mL (≈ 111 µM) | MIC (MRSA and MSSA; MRSA #3, read-out: MIC alone): 31.3 µg/mL (≈ 111 µM) | MIC (MRSA and MSSA; MRSA #4, read-out: MIC alone): 31.3 µg/mL (≈ 111 µM) | MIC (MRSA and MSSA; MRSA #5, read-out: MIC alone): 31.3 µg/mL (≈ 111 µM) | MIC (MRSA and MSSA; MRSA #6, read-out: MIC alone): 31.3 µg/mL (≈ 111 µM) | MIC (MRSA and MSSA; MRSA #7, read-out: MIC alone): 31.3 µg/mL (≈ 111 µM) | MIC (MRSA and MSSA; MRSA #8, read-out: MIC alone): 31.3 µg/mL (≈ 111 µM) | MIC (MRSA and MSSA; MRSA #9, read-out: MIC alone): 31.3 µg/mL (≈ 111 µM) | MIC (MRSA and MSSA; MRSA #10, read-out: MIC alone): 15.6 µg/mL (≈ 55.3 µM) | MIC (MRSA and MSSA; MRSA #12, read-out: MIC alone): 31.3 µg/mL (≈ 111 µM) | MIC (MRSA and MSSA; MRSA #16, read-out: MIC alone): 31.3 µg/mL (≈ 111 µM) | MIC (MRSA and MSSA; MRSA #17, read-out: MIC alone): 31.3 µg/mL (≈ 111 µM) | MIC (MRSA and MSSA; MRSA #18, read-out: MIC alone): 31.3 µg/mL (≈ 111 µM) | MIC (MRSA and MSSA; MRSA #20, read-out: MIC alone): 31.3 µg/mL (≈ 111 µM) | MIC (MRSA and MSSA; MRSA #21, read-out: MIC alone): 31.3 µg/mL (≈ 111 µM) | MIC (MRSA and MSSA; MRSA #22, read-out: MIC alone): 31.3 µg/mL (≈ 111 µM) | MIC (MRSA and MSSA; MRSA #24, read-out: MIC alone): 31.3 µg/mL (≈ 111 µM) | MIC (MRSA and MSSA; MSSA #1003, read-out: MIC alone): 31.3 µg/mL (≈ 111 µM) | MIC (MRSA and MSSA; MSSA #1010, read-out: MIC alone): 31.3 µg/mL (≈ 111 µM) | MIC (MRSA and MSSA; MSSA #1020, read-out: MIC alone): 31.3 µg/mL (≈ 111 µM) | MIC (MRSA and MSSA; MSSA #1023, read-out: MIC alone): 31.3 µg/mL (≈ 111 µM) | MIC (MRSA and MSSA; MSSA #1029, read-out: MIC alone): 31.3 µg/mL (≈ 111 µM) | MIC (MRSA and MSSA; MSSA #1032, read-out: MIC alone): 31.3 µg/mL (≈ 111 µM)

CCCCCCCCCCCCOC(=O)c1cc(O)c(O)c(O)c1 [Lauryl gallate, n-lauryl gallate]
FIC value ([1]; MRSA COL): 0.531 | FIC value ([1]; MRSA Strain No. 5): 0.375 | MIC (MRSA and MSSA; ATCC 6538 / MRSA / MSSA, ATCC6538, compound alone, read-out: MIC): 62.5 µg/mL (≈ 185 µM) | MIC (MRSA and MSSA; COL, compound alone, read-out: MIC): 31.3 µg/mL (≈ 92.5 µM) | MIC (MRSA and MSSA; MRSA #1, compound alone, read-out: MIC): 62.5 µg/mL (≈ 185 µM) | MIC (MRSA and MSSA; MRSA #2, compound alone, read-out: MIC): 62.5 µg/mL (≈ 185 µM) | MIC (MRSA and MSSA; MRSA #3, compound alone, read-out: MIC): 62.5 µg/mL (≈ 185 µM) | MIC (MRSA and MSSA; MRSA #4, compound alone, read-out: MIC): 62.5 µg/mL (≈ 185 µM) | MIC (MRSA and MSSA; MRSA #5, compound alone, read-out: MIC): 62.5 µg/mL (≈ 185 µM) | MIC (MRSA and MSSA; MRSA #6, compound alone, read-out: MIC): 31.3 µg/mL (≈ 92.5 µM) | MIC (MRSA and MSSA; MRSA #7, compound alone, read-out: MIC): 31.3 µg/mL (≈ 92.5 µM) | MIC (MRSA and MSSA; MRSA #8, compound alone, read-out: MIC): 31.3 µg/mL (≈ 92.5 µM) | MIC (MRSA and MSSA; MRSA #9, compound alone, read-out: MIC): 31.3 µg/mL (≈ 92.5 µM) | MIC (MRSA and MSSA; MRSA #10, compound alone, read-out: MIC): 15.6 µg/mL (≈ 46.1 µM) | MIC (MRSA and MSSA; MRSA #12, compound alone, read-out: MIC): 62.5 µg/mL (≈ 185 µM) | MIC (MRSA and MSSA; MRSA #16, compound alone, read-out: MIC): 62.5 µg/mL (≈ 185 µM) | MIC (MRSA and MSSA; MRSA #17, compound alone, read-out: MIC): 62.5 µg/mL (≈ 185 µM) | MIC (MRSA and MSSA; MRSA #18, compound alone, read-out: MIC): 62.5 µg/mL (≈ 185 µM) | MIC (MRSA and MSSA; MRSA #20, compound alone, read-out: MIC): 62.5 µg/mL (≈ 185 µM) | MIC (MRSA and MSSA; MRSA #21, compound alone, read-out: MIC): 62.5 µg/mL (≈ 185 µM) | MIC (MRSA and MSSA; MRSA #22, compound alone, read-out: MIC): 62.5 µg/mL (≈ 185 µM) | MIC (MRSA and MSSA; MRSA #24, compound alone, read-out: MIC): 62.5 µg/mL (≈ 185 µM) | MIC (MRSA and MSSA; MSSA #1003, compound alone, read-out: MIC): 62.6 µg/mL (≈ 185 µM) | MIC (MRSA and MSSA; MSSA #1010, compound alone, read-out: MIC): 62.5 µg/mL (≈ 185 µM) | MIC (MRSA and MSSA; MSSA #1020, compound alone, read-out: MIC): 62.5 µg/mL (≈ 185 µM) | MIC (MRSA and MSSA; MSSA #1023, compound alone, read-out: MIC): 62.5 µg/mL (≈ 185 µM) | MIC (MRSA and MSSA; MSSA #1029, compound alone, read-out: MIC): 62.5 µg/mL (≈ 185 µM) | MIC (MRSA and MSSA; MSSA #1032, compound alone, read-out: MIC): 62.5 µg/mL (≈ 185 µM) | MIC50 (MRSA and MSSA; over all strains of Table 3-2, compound alone, read-out: MIC50): 62.5 µg/mL (≈ 185 µM)
